Measured values: patent US20100227827A1, “METHOD OF INCREASING TRYPTOPHAN AND NICOTINAMIDE LEVELS IN VIVO” (priority 2006, published 2010)
“And” between values parts separate entries of the source, which are not always exact repeats. Identical values can stand only once. Counter-ions that a name gives are not always drawn. Marks after values point to notes of the source that are not given here.

What was measured:
[1] = Molar ratio from neutralization of free organic acid with hydroxides; format: physicochemical; conditions: salt or chelate
Method: Determination of salts and chelates of some naturally occurring polyhydroxylated and polycarboxylated organic acids are provided in Table 1. Experimental molar ratios were calculated from neutralization to pH=7.5 of free protonated organic acid (H^+) with sodium, potassium or ammonium hydroxides.

[2] = oral human dose 100 mg/kg (50-200 mg/kg); Smith 1982; cited from earlier work
[3] = Single high dose quinic acid time study, serum HPLC; format: in vivo; conditions: human
Method: Serum samples of 0.2 and 30 ml were collected from blood, and precipitated with either ethanol or trichloroacetic acid (TCA). After clean-up the supernatants were dried (ethanol precipitated) or used directly. A standard curve was prepared using quinic acid (Sigma) dissolved in distilled water and obeyed the equation y=6012.8x−24698; 20 μl injections of solutions between 0-25 mg/ml were used.
A apparently healthy volunteer drank 6 gm of quinic acid ammonium chelate (Quinmax™) dissolved in 300 ml water over a 15 min period, samples were collected, and then about 40 ml of peripheral blood (4-red topped vacutainers) were allowed to clot at room temperature to prepare serum samples by centrifugation. The serum sampling points were 0.7 hr, 1.7 hr, 2.7 hr, 3.7 hr, 10.5 hr 12.5 hr, hr, 28 hr and 44 hr. 30 ml serum samples were precipitated with 50% ethanol, taken to dryness under a stream of air, and redissolved in 1 ml of methanol for simultaneous HPLC analysis of quinic acid and hippuric acid. The data were reported as quinic acid present in 30 ml of serum. The column used for this experiment was a C18 150×4.6 mm. The mobile phase was 0.1% trifluoroacetic (TFA). The UV detector was set at 220 nm and quinic acid eluted with a retention of 2.26 min and hippuric acid at 8.3 min. Sensitivity of the method was about 1/30=0.033 mg quinic acid/ml serum.
A single high dose of 6000 mg was administered orally to a subject, and then 30 ml serum samples were prepared from whole blood samples taken from 0.7 to 44 hours after exposure. As serum samples were precipitated with ethanol and redissolved in 1 ml […], this allowed for a 30-fold increase in concentration of any quinic acid present in each blood sample, rendering the method extremely sensitive to even small amounts of quinic acid.

[4] = test system: spleen cells; assay: Mouse 21 day drinking water study, spleen cell count; format: in vivo, C57BL/6 female mice; conditions: mice, after day 21 intervention in drinking water; C-Med-100 4 mg/ml (500 mg/kg), quinic acid 2 mg/ml (250 mg/kg)
Method: C57BL/6 female mice were fed 4 mg/ml C-Med-100® or 2 mg/ml quinic acid dissolved in autoclaved tap water for 21 days. The animals were sacrificed, spleens removed and blood collected. The cell samples were analyzed in a […] Corporation, Kobe, Japan) and plasma/serum samples prepared for chemical analysis by HPLC for quinic acid and tryptophan.

[5] = test system: indolediamine oxygenase (IDO); assay: IDO activity from tryptophan/kynurenine molar ratio in serum (HPLC); conditions: quinic acid supplementation in vivo; tryptophan and kynurenine in serum
Method: Once tryptophan synthesis has been stimulated by the shikimate pathway, it is then further modified by catabolic metabolism via indolediamine oxygenase (IDO) first to kynurenine and/or hydroxtryptophan-serotonin and/or to quinoline-dopamine or to nicotinamde-NAD (energy). The inhibition of IDO activity by quinic acid exposure in vivo favors reduction in immunosuppressive activity. IDO activity was calculated by determining the molar ratios of tryptophan to kynurenine in 200 ul aliquots of 2 M TCA-precipitated serum by high pressure liquid chromatograph (HPLC). The HPLC method has already been published in all its details except the instrument was a HP 1100 series and the column was a XTERRA MSC18 ([…], 4.6 mm×50 mm) (Laich, A, Neurauter, […], Fuchs, D. More rapid method for simultaneous measurement of tryptophan and kyurenine by HPLC. Clinical Chemistry 48 (3): 579-580, 2002). The effect of quinic acid was further characterized on the end products of the shikimate pathway. Accordingly, quinic acid supplementation was analyzed against IDO activity through simultaneous detection of tryptophan and kynurenine. […]

[6] = Urinary quinic acid, hippuric acid, tryptophan and nicotinamide by HPLC; format: in vivo, human; conditions: over 9 months, Table 4 and text calculations
Method: Blood samples were collected by venal puncture using vacutainers (red top, 10 ml) usually in the morning (a.m.) after 12 hours of fasting. Serum was separated from the blood clot after setting 2 hr on the bench top before centrifugation for 10 min at 1500×g. Sera prepared in this manner were stored at +4° C. until biochemical analysis usually within 1-30 days of collection. Urine samples were collected as a random 50 ml sample in the A.M. during the treatment and follow-up (after treatment for 8 months) periods. Urine was spun at 5000×g for 15 min and the supernatant stored at +4° C. until analyzed within 1 month of collection. After the first analysis all samples were further stored at −20° C. and used for repeat determinations over time. Trial design for the clinical evaluation of Aqua Bimini™ (quinic acid ammonium chelate) was carried out at Lund University beginning Apr. 28, 2006. […] Repeat serum and urine samples were collected throughout the trial period and then pooled into groups for analysis as 6 weeks before (baseline), 4 weeks of intervention (treatment, 36 days) and 8 months dry-out (no treatment). Urine samples were mixed with 1:2:4 v/v/v of: aqueous urine:95% ethanol:ethyl acetate for 10 min with vigorous shaking. The ethyl acetate layer was allowed to separate with gravity at room temperature, and then it was removed with a pipette and evaporated with an air stream to dryness in a vacuum hood. In this manner 1-2 ml of urine were reconstituted in 0.2 ml water or ethanol which represented a 5-10 fold increase in concentration. […] The urine samples were diluted 1:2:4 v/v/v with ethanol and ethyl acetate, and then the ethyl acetate fraction dried, solubilized in 0.2 ml water and used for HPLC analyses with 20 μl injections directly onto a C18 80×4.6 mm. The mobile phase was 0.2% trifluoroacetic (TFA):methanol:acetonitrile (70:30):water in a ratio 8:8:84 (v/v/v). The UV detector was set at 215 nm, and quinic acid eluted with a retention of 0.97-1.05 min and nicotinamide at 2.6-2.9 min. The detection limit in urine was about 1.5 mg/ml for quinic acid and for nicotinamide it was 0.015 mg/ml. […] The urine samples were diluted 1:2:4 v/v/v with ethanol and ethyl acetate, and then the ethyl acetate fraction dried, solubilized in 0.2 ml water and used for HPLC analyses with 20 μl injections directly onto a C18 80×4.6 mm. The mobile phase was 70:30 v/v, 0.2% TFA: 30% methanol. The UV detector was set at 225 nm. Tryptophan eluted after 5.2-5.4 min and hippuric acid after 3.1-3.4 min.

[7] = Mouse 21 day drinking water study, plasma/serum HPLC; format: in vivo, C57BL/6 female mice; conditions: mice
Method: […] The animals were sacrificed, spleens removed and blood collected. The cell samples were analyzed in a […] Corporation, Kobe, Japan) and plasma/serum samples prepared for chemical analysis by HPLC for quinic acid and tryptophan.

For `N.N.N.O=C(O)CC(O)(C(=O)O)C(O)C(=O)O` (centres unmarked) [Hydroxy citric acid ammonium salt], which “Determination of structure existing in water” value (“Determination” below) [1] is on record?
Its value is “Chelate”.

For `O=C(O)[C@]1(O)C[C@@H](O)[C@@H](O)[C@H](O)C1` [Quinic acid potassium salt], which “Determination” value ([1]; potassium salt) is on record?
Its value is “chelate”.

For `O=C(O)[C@]1(O)C[C@@H](O)[C@@H](O)[C@H](O)C1` [Quinic acid sodium salt], which “Determination” value ([1]; sodium salt) is on record?
Its value is “salt”.

With `N[C@@H](Cc1c[nH]c2ccccc12)C(=O)O` [Therapeutic tryptophan, tryptophan] as the compound, how does the “Urinary excretion daily sample, Tryptophan (avg)” value [2] read?
The value was “Tryptophan. = 1.3 mg/liter^c”.

For `O=C(O)[C@]1(O)C[C@@H](O)[C@@H](O)[C@H](O)C1` [quinic acid], which “fraction of total dose taken up into the serum” value ([3]; in vivo) is on record?
Its value is 0.073%.

And the “quinic acid found in systemic circulation” value ([3]; in vivo)?
The value was < 0.1 % of the administered dose.

And the “quinic acid of total dose taken up into the serum” value ([3]; in vivo)?
The value was 4.4 mg.

What about the “quinic acid either excreted or metabolized” value ([3]; in vivo, 44 h) of the same compound?
Its value is 99.9%.

What about the “time of maximum uptake of quinic acid into serum” value ([3]; single oral dose 6000 mg) of the same compound?
The value was 10.5 h and 12.5 h.

What about the “In vivo spleen cells mean ± s.d.” value [4] of the same compound?
The value was 100 ± 10^c ×10^6.

What about the IDO activity [5] of the same compound?
Its IDO activity is “inhibits IDO activity”.

And the “quinic acid dose excreted unmetabolized in the urine” value [6]?
Its value is 40-60%.

And the “In vivo plasma tryptophan mean ± s.d.” value ([7]; after day 21 intervention in drinking water, C-Med-100 4 mg/ml (500 mg/kg))?
The value was 79.4 ± 2.7^c μM.

What about the “level of quinic acid, below HPLC detection” value ([7]; quinic acid 1 mg/ml in drinking water or about 500 mg/kg, 21 days) of the same compound?
Its value is less than 2000 µg/mL.
